Source: patent US8273724B2, “Melanoma antigens and their use in diagnostic and therapeutic methods” (The United States of America, as represented by the …, priority 1994, dated 2012)
pIC50: −log10 of the molar value. Where two headings read alike, the source gives them in different places. One block for each compound: values may come before it. Where a SMILES comes first, the peptide text is derived from it.

Experiments:
[1] = tested on: T2 cell lines preincubated with peptide; assay: Recognition of modified peptides by natural epitope (M9-2, G9-154, G9-209, G9-280) reactive T-cells, 51Cr release on peptide-pulsed T2 cells (Example 5); type: cell-based, human
Procedure: Assessment of antigen recognition by CTL. ^51Cr release cytotoxic assays were performed to detect the recognition of peptide and melanoma cells by CTL. To analyze peptide recognition, T2 cell lines were preincubated for 2 h at 37° C. with 1 ug/ml peptide, washed and used as target cells in a ^51Cr release cytotoxic assay. The melanoma lines 624mel was established in our laboratory (See Example 1).
In order to make more immunogenic peptides for induction of anti-melanoma T-cells than natural melanoma epitopes, a variety of peptides in which at least 1 amino acid was changed based on consensus motifs in peptides binding to a specific MHC Class I allele Falk, et al. (1991) Nature 351:290; Kubo et al. (1994) J. Immunol 152:3913; Parker, K. et al. (1992) Journal of Immunology 149:3580; Ruppert, J. et al. (1993) Cell 74:929-937) (Tables 14, 15, 16, and 17). […] By changing amino acid at the 1st, 2nd, 3rd or 9th positions which are important for HLA-A2 binding to the peptide, but less important for recognition by T-cell receptors, artificial peptides which can bind to HLA-A2.1 with higher affinity and still be recognized by natural epitope specific T-cells may be generated.

HLA-A2.1 = HLA-A2.1 (Homo sapiens, UniProt P04439, D140Y/D185E/D98H/E176V/E277Q/G131W/G231S/I119V/I121R/I166T/I218V/L300P/L318F/N151K/N90K/P208A/P217A/Q86G/Q94H/R138H/R169H/T345S); assay: HLA-A2.1 binding assay of modified peptides, inhibition of radiolabeled Hbc 18-27 (Example 5); settings: for pIC50: modified gp100 G9-154 peptides, read-out: Binding affinity to HLA-A2.1
HLA-A2.1+ T2 cells = settings: for % specific lysis at E:T = 40:1: peptide 1 ug/ml

binding affinity to HLA-A2.1 compared with the natural epitope (HLA-A2.1): higher binding affinity
Compound: CC[C@H](C)[C@H](N)C(=O)N[C@@H](CC(C)C)C(=O)N[C@@H](CC(=O)O)C(=O)N[C@@H](CCC(N)=O)C(=O)N[C@H](C(=O)N1CCC[C@H]1C(=O)N[C@@H](Cc1ccccc1)C(=O)N[C@@H](CO)C(=O)N[C@H](C(=O)O)C(C)C)C(C)C [G9-209-2L]
Recognition by G9-209 reactive T-cell [1]: + (+, recognized) | recognition by the original melanoma reactive T-cells [1]: recognized

binding affinity to HLA-A2.1 compared with the natural epitope (HLA-A2.1): higher binding affinity
Compound: CC[C@H](C)[C@H](NC(=O)CNC(=O)[C@H](CC(C)C)NC(=O)[C@H](C)N)C(=O)NCC(=O)N[C@H](C(=O)N[C@@H](CC(C)C)C(=O)N[C@H](C(=O)N[C@H](C(=O)O)C(C)C)[C@@H](C)O)[C@@H](C)CC [M9-2-2L]
Recognition by M9-2 reactive T-cell [1]: + (+, recognized) | recognition by the original melanoma reactive T-cells [1]: recognized

pIC50 (HLA-A2.1): 7.22
Compound: CC(C)[C@H](NC(=O)[C@H](CCC(N)=O)NC(=O)[C@H](Cc1c[nH]c2ccccc12)NC(=O)[C@H](Cc1ccc(O)cc1)NC(=O)[C@H](CCC(N)=O)NC(=O)CNC(=O)[C@H](Cc1c[nH]c2ccccc12)NC(=O)[C@@H](NC(=O)[C@@H](N)Cc1c[nH]c2ccccc12)[C@@H](C)O)C(=O)O [G9-154-1W] (H-WTWGQYWQV-OH; N-terminus and C-terminus assumed)
Recognition by G9-154 reactive T-cell [1]: −

pIC50 (HLA-A2.1): 8.28
Compound: CC(C)[C@H](NC(=O)[C@H](CCC(N)=O)NC(=O)[C@H](Cc1c[nH]c2ccccc12)NC(=O)[C@H](Cc1ccc(O)cc1)NC(=O)[C@H](CCC(N)=O)NC(=O)CNC(=O)[C@H](Cc1c[nH]c2ccccc12)NC(=O)[C@@H](NC(=O)[C@H](C)N)[C@@H](C)O)C(=O)O [G9-154-1A] (H-ATWGQYWQV-OH; N-terminus and C-terminus assumed)
Recognition by G9-154 reactive T-cell [1]: + (+, recognized)

Compound: CC[C@H](C)[C@H](NC(=O)[C@@H](N)[C@@H](C)O)C(=O)N[C@H](C(=O)N[C@@H](CC(=O)O)C(=O)N[C@@H](CCC(N)=O)C(=O)N[C@H](C(=O)N1CCC[C@H]1C(=O)N[C@@H](Cc1ccccc1)C(=O)N[C@@H](CO)C(=O)N[C@H](C(=O)O)C(C)C)C(C)C)[C@@H](C)O [G10208]
% specific lysis at E:T = 40:1 (HLA-A2.1+ T2 cells; Exp. 1, TIL 620-1): 42% | % specific lysis at E:T = 40:1 (HLA-A2.1+ T2 cells; Exp. 1, TIL 620-2): 36% | % specific lysis at E:T = 40:1 (HLA-A2.1+ T2 cells; Exp. 1, TIL 660-1): 7% | % specific lysis at E:T = 40:1 (HLA-A2.1+ T2 cells; Exp. 1, TIL 1143): 4% | % specific lysis at E:T = 40:1 (HLA-A2.1+ T2 cells; Exp. 1, TIL 1200): 2% | % specific lysis at E:T = 40:1 (HLA-A2.1+ T2 cells; Exp. 1, TIL 1235): 3% | % specific lysis at E:T = 40:1 (HLA-A2.1+ T2 cells; Exp. 2, TIL 620-1): 35% | % specific lysis at E:T = 40:1 (HLA-A2.1+ T2 cells; Exp. 2, TIL 620-2): 80% | % specific lysis at E:T = 40:1 (HLA-A2.1+ T2 cells; Exp. 2, TIL 660-2): 7% | % specific lysis at E:T = 40:1 (HLA-A2.1+ T2 cells; Exp. 2, TIL 1143): 10% | % specific lysis at E:T = 40:1 (HLA-A2.1+ T2 cells; Exp. 2, TIL 1200): 1% | % specific lysis at E:T = 40:1 (HLA-A2.1+ T2 cells; Exp. 2, TIL 1235): 5% | TIL that recognize the peptide (HLA-A2.1+ T2 cells; cytotoxicity assays, T2 preincubated with peptide): recognized only by TIL620

binding affinity to HLA-A2.1 compared with the natural epitope (HLA-A2.1): higher binding affinity
Compound: CC[C@H](C)[C@H](NC(=O)CNC(=O)[C@@H](NC(=O)[C@H](Cc1ccc(O)cc1)NC(=O)[C@H](C)NC(=O)[C@H](C)N)[C@@H](C)CC)C(=O)N[C@@H](CC(C)C)C(=O)N[C@H](C(=O)N[C@H](C(=O)O)C(C)C)[C@@H](C)O [M9-2-3Y]
Recognition by M9-2 reactive T-cell [1]: + (+, recognized) | recognition by the original melanoma reactive T-cells [1]: recognized

pIC50 (HLA-A2.1): 8.77
Compound: CC(C)C[C@H](NC(=O)[C@@H](N)Cc1ccc(O)cc1)C(=O)N[C@@H](Cc1c[nH]c2ccccc12)C(=O)NCC(=O)N[C@@H](CCC(N)=O)C(=O)N[C@@H](Cc1ccc(O)cc1)C(=O)N[C@@H](Cc1c[nH]c2ccccc12)C(=O)N[C@@H](CCC(N)=O)C(=O)N[C@H](C(=O)O)C(C)C [G9-154-1Y2L] (H-YLWGQYWQV-OH; N-terminus and C-terminus assumed)
Recognition by G9-154 reactive T-cell [1]: −

pIC50 (HLA-A2.1): 7.68
Compound: CC(C)[C@H](NC(=O)[C@H](CCC(N)=O)NC(=O)[C@H](Cc1c[nH]c2ccccc12)NC(=O)[C@H](Cc1ccc(O)cc1)NC(=O)[C@H](CCC(N)=O)NC(=O)CNC(=O)[C@H](Cc1ccccc1)NC(=O)[C@@H](NC(=O)[C@@H](N)CCCCN)[C@@H](C)O)C(=O)O [G9-154-3F] (H-KTFGQYWQV-OH; N-terminus and C-terminus assumed)
Recognition by G9-154 reactive T-cell [1]: + (+, recognized)

binding affinity to HLA-A2.1 compared with the natural epitope (HLA-A2.1): higher binding affinity
Compound: CC(C)C[C@H](NC(=O)[C@@H](N)Cc1ccc(O)cc1)C(=O)N[C@@H](CC(=O)O)C(=O)N[C@@H](CCC(N)=O)C(=O)N[C@H](C(=O)N1CCC[C@H]1C(=O)N[C@@H](Cc1ccccc1)C(=O)N[C@@H](CO)C(=O)N[C@H](C(=O)O)C(C)C)C(C)C [G9-209-1Y2L]
Recognition by G9-209 reactive T-cell [1]: + (+, recognized) | recognition by the original melanoma reactive T-cells [1]: recognized

pIC50 (HLA-A2.1): 8.80
Compound: CC(C)[C@H](NC(=O)[C@H](CCC(N)=O)NC(=O)[C@H](Cc1c[nH]c2ccccc12)NC(=O)[C@H](Cc1ccc(O)cc1)NC(=O)[C@H](CCC(N)=O)NC(=O)CNC(=O)[C@H](Cc1c[nH]c2ccccc12)NC(=O)[C@@H](NC(=O)[C@@H](N)Cc1ccccc1)[C@@H](C)O)C(=O)O [G9-154-1F] (H-FTWGQYWQV-OH; N-terminus and C-terminus assumed)
Recognition by G9-154 reactive T-cell [1]: −

pIC50 (HLA-A2.1): 7.52
Compound: CC(C)[C@H](NC(=O)[C@H](CCC(N)=O)NC(=O)[C@H](Cc1c[nH]c2ccccc12)NC(=O)[C@H](Cc1ccc(O)cc1)NC(=O)[C@H](CCC(N)=O)NC(=O)CNC(=O)[C@H](Cc1ccc(O)cc1)NC(=O)[C@@H](NC(=O)[C@@H](N)CCCCN)[C@@H](C)O)C(=O)O [G9-154-3Y] (H-KTYGQYWQV-OH; N-terminus and C-terminus assumed)
Recognition by G9-154 reactive T-cell [1]: + (+, recognized)

binding affinity to HLA-A2.1 compared with the natural epitope (HLA-A2.1): higher binding affinity
Compound: CC(C)[C@H](NC(=O)[C@H](CO)NC(=O)[C@H](Cc1ccccc1)NC(=O)[C@@H]1CCCN1C(=O)[C@@H](NC(=O)[C@H](CCC(N)=O)NC(=O)[C@H](CC(=O)O)NC(=O)[C@@H](NC(=O)[C@@H](N)Cc1ccc(O)cc1)[C@@H](C)O)C(C)C)C(=O)O [G9-209-1Y]
Recognition by G9-209 reactive T-cell [1]: + (+, recognized) | recognition by the original melanoma reactive T-cells [1]: recognized

pIC50 (HLA-A2.1): 8.55
Compound: CC(C)C[C@H](NC(=O)[C@@H](N)Cc1c[nH]c2ccccc12)C(=O)N[C@@H](Cc1c[nH]c2ccccc12)C(=O)NCC(=O)N[C@@H](CCC(N)=O)C(=O)N[C@@H](Cc1ccc(O)cc1)C(=O)N[C@@H](Cc1c[nH]c2ccccc12)C(=O)N[C@@H](CCC(N)=O)C(=O)N[C@H](C(=O)O)C(C)C [G9-154-1W2L] (H-WLWGQYWQV-OH; N-terminus and C-terminus assumed)
Recognition by G9-154 reactive T-cell [1]: −

pIC50 (HLA-A2.1): 8.59
Compound: CC(C)C[C@H](NC(=O)[C@@H](N)Cc1ccccc1)C(=O)N[C@@H](Cc1c[nH]c2ccccc12)C(=O)NCC(=O)N[C@@H](CCC(N)=O)C(=O)N[C@@H](Cc1ccc(O)cc1)C(=O)N[C@@H](Cc1c[nH]c2ccccc12)C(=O)N[C@@H](CCC(N)=O)C(=O)N[C@H](C(=O)O)C(C)C [G9-154-1F2L] (H-FLWGQYWQV-OH; N-terminus and C-terminus assumed)
Recognition by G9-154 reactive T-cell [1]: −

pIC50 (HLA-A2.1): 8.60
Compound: CC(C)[C@H](NC(=O)[C@H](CCC(N)=O)NC(=O)[C@H](Cc1c[nH]c2ccccc12)NC(=O)[C@H](Cc1ccc(O)cc1)NC(=O)[C@H](CCC(N)=O)NC(=O)CNC(=O)[C@H](Cc1c[nH]c2ccccc12)NC(=O)[C@@H](NC(=O)[C@@H](N)Cc1ccc(O)cc1)[C@@H](C)O)C(=O)O [G9-154-1Y]
Recognition by G9-154 reactive T-cell [1]: −

pIC50 (HLA-A2.1): 8.47
Compound: CC(C)C[C@H](N)C(=O)N[C@H](C(=O)N[C@@H](Cc1c[nH]c2ccccc12)C(=O)NCC(=O)N[C@@H](CCC(N)=O)C(=O)N[C@@H](Cc1ccc(O)cc1)C(=O)N[C@@H](Cc1c[nH]c2ccccc12)C(=O)N[C@@H](CCC(N)=O)C(=O)N[C@H](C(=O)O)C(C)C)[C@@H](C)O [G9-154-1L] (H-LTWGQYWQV-OH; N-terminus and C-terminus assumed)
Recognition by G9-154 reactive T-cell [1]: + (+, recognized)

Compound: CC[C@H](C)[C@H](NC(=O)CNC(=O)[C@H](CCSC)NC(=O)[C@H](C)N)C(=O)NCC(=O)N[C@H](C(=O)N[C@@H](CC(C)C)C(=O)N[C@H](C(=O)N[C@H](C(=O)O)C(C)C)[C@@H](C)O)[C@@H](C)CC [M9-2-2M]
Recognition by M9-2 reactive T-cell [1]: −

Compound: CC[C@H](C)[C@H](NC(=O)CNC(=O)[C@@H](NC(=O)[C@@H](N)CCCCN)[C@@H](C)CC)C(=O)NCC(=O)N[C@H](C(=O)N[C@@H](CC(C)C)C(=O)N[C@H](C(=O)N[C@H](C(=O)O)C(C)C)[C@@H](C)O)[C@@H](C)CC [M9-2-1K2I]
Recognition by M9-2 reactive T-cell [1]: −
